Entries after “also recorded” stand apart in the source; their conditions may differ. Peptide text beside a SMILES is read from it. * marks the point of attachment. Cbz = O=C(OCc1ccccc1)*
Experiments:
[1] = system: HT1080V and HT1080I cells; assay: Cell viability of HT1080V and HT1080I cells treated with cytotoxic agent (data not shown); assay type: cell-based, human
Procedure: The present inventors' preliminary data additionally indicate that cell killing by vincristine is augmented by the inhibition of NF-κB (data not shown). HT1080V and HT1080I cells were treated with vincristine and cell viability was determined.

NF-κB [2] = assay: Electrophoretic mobility-shift assay (EMSA) of NF-κB nuclear translocation in HT1080V and HT1080I cells; assay type: cell-based, human
Procedure: HT1080 fibrosarcoma cells were co-transfected with the pCMV empty vector to produce control cells HT1080V; HT1080 cells co-transfected with the pCMV vector containing a cDNA encoding the super-repressor IκBα and with the pCEP4 vector for hygromycin B selection (400 μg/ml) provided HT1080I cells that expressed the super-repressor IκBα.

[3] = system: HT1080 fibrosarcoma cells; assay: Cell survival by crystal violet assay in HT1080V and HT1080I cells; assay type: cell-based, human
Procedure: HT1080V (open squares) and HT1080I cells (solid diamonds) were treated with TNFα (20 ng/ml) for varying times and surviving cells were quantified by crystal violet assay (Mehlen et al., EMBO J. 15:2695 (1996)). Data shown (FIG. 1A) are the mean of three independent experiments ±SD, and the percentage cell survival was defined as the relative number of TNF treated versus untreated cells.
HT1080V and HT1080I cells were preincubated with 10 ng/ml IL-1β (R & D Systems) for 5 hours (+Pre IL-1), or were left untreated. Cells were then treated with 10 μg/ml cycloheximide (CHX) and different concentrations of TNFα (0-50 ng/ml). Surviving cells were quantified by crystal violet assay (Mehlen et al., EMBO J. 15:2695 (1996)). […] Open squares represent HT1080V cells without IL-1 pretreatment; closed squares represent HT1080V cells pretreated with IL-1; circles represent HT1080I cells without IL-1 pretreatment; triangles represent HT1080I cells pretreated with IL-1.

HT1080V cells = assay: Cell viability experiments, enhancement of TNF-induced cell killing by proteasome inhibitor; assay type: cell-based, human; details: dose-dependent, data not shown
Text: The effect of a proteasome inhibitor on TNF-treated cells was investigated. Proteasome inhibitors of the peptide aldehyde category are potent inhibitors of NF-κB activation (Palombello et al., Cell 78:773 (1994); Chen et al., Genes Dev. 9:1586 (1995)). […] Cell viability experiments were used to monitor the effectiveness of MG132 in enhancing TNF-induced cell killing.

[4] = system: HT1080 fibrosarcoma cells; assay: TNF-induced apoptosis detected by TUNEL staining; assay type: cell-based, human; details: 50 ng/ml TNFα for 7 hr; HT1080V and HT1080I cells; FIG. 1B
Procedure: TNF-induced apoptosis was detected by TUNEL staining (Graeber et al., Nature 379:88 (1996)). HT1080V (V) and HT1080I (I) cells were untreated (−TNF) or stimulated (+TNF) with 50 ng/ml TNFα for 7 hr and fixed with 4% paraformaldehyde. The staining was done according to the manufacturer's instructions (Boehringer Mannheim).

NF-κB [5] = assay: NF-κB activation by CPT-11 (data not shown); assay type: cell-based

With `CN[C@@H]1C[C@H]2O[C@@](C)([C@@H]1OC)n1c3ccccc3c3c4c(c5c6ccccc6n2c5c31)C(=O)NC4` [staurosporine] as the molecule, how does the “Apoptosis induced in IκBα expressing cells versus control” value ([1]; HT1080I cells, data not shown) read?
Its value is “not enhanced by the expression of IκBα”.

What about the “NF-κB nuclear translocation (EMSA) in control cells” value (NF-κB [2]; HT1080V cells, 1 μM daunorubicin or 50 nM staurosporine) of the same molecule?
Its value is “did not activate NF-κB; also recorded: only slight nuclear translocation of NF-κB was evident”.

“IL-1: an activator of NF-κB that does not initiate apoptosis” was tested. Which “Effect of pre-treatment on TNFα+CHX-induced apoptosis in HT1080V cells” value ([3]; 10 ng/ml IL-1β for 5 hours, then 10 μg/ml CHX and TNFα 0-50 ng/ml, FIG. 2A) did it give?
The value was “inhibited TNFα+CHX-induced apoptosis in HT1080V cells”.

And the “Effect of pre-treatment on CHX+TNF-induced killing in HT1080I cells” value ([3]; HT1080I cells, NF-κB activation blocked, FIG. 2A)?
The value was “no protective effect”.

`CC[C@]1(O)C[C@H]2CN(CCc3c([nH]c4ccccc34)[C@@](C(=O)OC)(c3cc4c(cc3OC)N(C=O)[C@H]3[C@@](O)(C(=O)OC)[C@H](OC(C)=O)[C@]5(CC)C=CCN6CC[C@]43[C@@H]65)C2)C1` [vincristine] was tested. Which “Cell killing in HT1080I versus HT1080V cells” value ([1]; preliminary data, not shown) did it give?
Its value is “Cell killing in HT1080I cells was enhanced compared to that in HT1080V cells”.

`COc1cccc2c1C(=O)c1c(O)c3c(c(O)c1C2=O)C[C@@](O)(C(C)=O)C[C@@H]3O[C@H]1C[C@H](N)[C@H](O)[C@H](C)O1` [daunorubicin] was tested. Which “Cell survival after daunorubicin, HT1080I versus control cells” value ([3]; 0.1 to 2.0 μM for 24 hours, FIG. 3B) did it give?
The value was “reduced in HT1080I cells”.

How did the “Enhancement of TNF-induced killing” value (HT1080V cells) turn out when `CC(C)C[C@@H](C=O)NC(=O)[C@H](CC(C)C)NC(=O)[C@H](CC(C)C)NC(=O)OCc1ccccc1` [MG132, Z-leu-leu-leu-H] (Cbz-Leu-Leu-Leu-aldehyde) was run?
The value was “strongly enhanced TNF-induced killing of HT1080V cells”.

How did the “Cell survival after TNFα, HT1080I versus HT1080V” value ([3]; TNFα 20 ng/ml, varying times, FIG. 1A) turn out when TNFα was run?
The value was “Cell survival was reduced in HT1080I cells compared to HT1080V controls”.

What about the “Apoptotic morphology by TUNEL staining” value [4] of the same molecule?
Its value is “only super-repressor IκBα expressing cells showed apoptotic morphology”.

Which “Activation of NF-κB” value (NF-κB [5]) does the source give for `CCc1c2c(nc3ccc(OC(=O)N4CCC(N5CCCCC5)CC4)cc13)-c1cc3c(c(=O)n1C2)COC(=O)[C@]3(O)CC` [CPT-11, irinotecan] here?
Its value is “determined to activate NF-κB”.

B1: super-repressor IκBα: mutant IκBα with serine to alanine mutations at residues 32 and 36; binds NF-κB and inhibits nuclear translocation (protein, UniProt P25963 1-317, looked up, variant S32A S36A)
NF-kappa-B inhibitor alpha: MFQAAERPQEWAMEGPRDGLKKERLLDDRHDAGLDAMKDEEYEQMVKELQEIRLEPQEVPRGSEPWKQQLTEDGDSFLHLAIIHEEKALTMEVIRQVKGDLAFLNFQNNLQQTPLHLAVITNQPEIAEALLGAGCDPELRDFRGNTPLHLACEQGCLASVGVLTQSCTTPHLHSILKATNYNGHTCLHLASIHGYLGIVELLVSLGADVNAQEPCNGRTALHLAVDLQNPDLVSLLLKCGADVNRVTYQGYSPYQLTWGRPSTRIQQQLGQLTLENLQMLPESEDEESYDTESEFTEFTEDELPYDDCVFGGQRLTL
Which “Effect on TNF-stimulated NF-κB nuclear translocation (EMSA)” value (NF-κB [2]; expressed in HT1080I cells, data not shown) does the source give for B1 here?
The value was “efficiently blocked TNF-stimulated NF-κB nuclear translocation”.

— patent US7700543B2, “Use NF-κB inhibition in combination therapy for cancer” (The University of North Carolina at Chapel Hill, priority 1997, dated 2010)
